Test results taken from PubChem BioAssay (NCI).
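Cells were grown in 96-well plates and exposed to each compound for 48 hours at five concentrations; endpoints were interpolated linearly between bracketing concentrations, or set to the highest concentration if not reached. At the GI50, growth is halved. TGI is the concentration that stops growth completely.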

Experiments:
Assay in all cases: NCI anticancer screen, dose series, 48 h
PC-3 prostate = tested on: PC-3 prostate
786-0 renal = tested on: 786-0 renal
SF-268 CNS = tested on: SF-268 CNS
MDA-MB-435 = tested on: MDA-MB-435
RPMI-8226 leukemia = tested on: RPMI-8226 leukemia
HS 578T breast = tested on: HS 578T breast
NCI-H522 lung = tested on: NCI-H522 lung
MDA-N = tested on: MDA-N
TK-10 renal = tested on: TK-10 renal
KM20L2 colon = tested on: KM20L2 colon
HOP-18 NSCLC = tested on: HOP-18 NSCLC
DMS 114 small cell lung = tested on: DMS 114 small cell lung
DMS 273 small cell lung = tested on: DMS 273 small cell lung

Structure (SMILES)	TGI (PC-3 prostate) [µM]	TGI (786-0 renal) [µM]	TGI (SF-268 CNS) [µM]	TGI (MDA-MB-435) [µM]	TGI (RPMI-8226 leukemia) [µM]	TGI (HS 578T breast) [µM]	TGI (NCI-H522 lung) [µM]	TGI (MDA-N) [µM]	TGI (TK-10 renal) [µM]	TGI (KM20L2 colon) [µM]	TGI (HOP-18 NSCLC) [µM]	TGI (DMS 114 small cell lung) [µM]	TGI (DMS 273 small cell lung) [µM]	GI50 (PC-3 prostate) [µM]	GI50 (SF-268 CNS) [µM]	GI50 (MDA-MB-435) [µM]	GI50 (RPMI-8226 leukemia) [µM]	GI50 (HS 578T breast) [µM]	GI50 (NCI-H522 lung) [µM]	GI50 (TK-10 renal) [µM]
CC[C@H]1C=CCC[C@@]2(C[C@@H]3CC[C@@H]4[C@H](C(=O)OCCCCCCCCCCCCCCCC(=O)O)[C@]5(CCC[C@@H](C)O5)NC(=[N+]34)N2)O1	1.9	0.418	3.07	6.27	0.582	2.13	0.365	7.68	8.73	–	–	–	–	–	–	–	–	–	–	–
COc1cccc(N=Cc2cc3cc(Br)ccc3nc2Cl)c1	> 50	11.3	> 50	> 50	41.6	> 50	> 50	> 50	–	–	–	–	–	–	–	–	–	–	–	–
CCCc1[nH]c(SCCCCCCCCSc2nc(-c3ccc(F)cc3)c(CCC)[nH]2)nc1-c1ccc(F)cc1	–	–	16.9	–	–	–	–	–	> 100	> 100	> 100	> 100	> 100	–	–	–	–	–	–	–
COc1cc(/C=C/C(=O)c2ccc(NS(=O)(=O)c3cc([N+](=O)[O-])ccc3C)cc2)cc(OC)c1OC	19.5	7.14	–	16.3	6.21	–	–	13	13.9	–	–	–	–	–	–	–	–	–	–	–
CC(=O)Nc1cc([As](=O)(O)O)ccc1O	> 100	> 100	> 100	> 100	> 100	> 100	> 100	> 100	> 100	–	–	–	–	–	–	–	–	–	–	–
CNC(=O)OC(C)CN1c2ccccc2Sc2ccc(Cl)cc21 (stereo unspecified)	> 10	–	> 10	> 10	> 10	> 10	> 10	> 10	> 10	–	–	–	–	–	–	–	–	–	–	–
CCOC(=O)CSc1nc(N)c2c(-c3ccc(OC)c(OC)c3)c3c(nc2n1)CCCC3	> 100	–	> 100	> 100	> 100	35.6	–	> 100	> 100	–	–	–	–	–	–	–	–	–	–	–
CCS(=O)(=O)Nc1ccc(Nc2c3ccccc3nc3ccccc23)c(OC)c1	–	–	12.5	–	8.24	–	16.1	–	–	6.44	7.92	5.53	1.85	–	–	–	–	–	–	–
COc1ccc2nc(N/N=C/C(C)=N/Nc3cc(C)c4cc(OC)ccc4n3)cc(C)c2c1	45.6	28	60.8	62.1	19.2	68.8	40.3	55.5	69.4	–	–	–	–	–	–	–	–	–	–	–
CCOC(=O)N(Cc1cccs1)c1cc(OC)c(OC)c(OC)c1	98.9	> 100	> 100	63.2	51.9	> 100	> 100	90.8	> 100	–	–	–	–	–	–	–	–	–	–	–
COc1ccc2nc(-c3ccc(-c4noc(-c5cc(OC)c(OC)c(OC)c5)n4)cc3)[nH]c2c1	> 100	–	45.6	39.8	> 100	55.7	45.3	–	13	–	–	–	–	20.5	7.13	4.27	6.02	9.49	6.89	4.62
CC#CC#C/C=C1/O[C@]2(CCC(OC(C)=O)CO2)[C@@H]2O[C@H]12 (stereo partly specified)	80.9	46.9	> 100	81.5	75.2	> 100	35.6	> 100	> 100	–	–	–	–	–	–	–	–	–	–	–
Cn1c(=S)[nH]c2sc3c(c2c1=O)CCSC3	> 100	> 100	> 100	> 100	> 100	> 100	> 100	> 100	> 100	–	–	–	–	–	–	–	–	–	–	–
COc1cc(C2C(C(=O)O)=C(CO)Oc3cc4c(cc32)OCO4)cc(OC)c1O (stereo unspecified)	–	–	–	–	> 100	–	–	–	> 100	> 100	> 100	> 100	> 100	–	–	–	–	–	–	–
